Data taken from the Kinase Knowledgebase extract (Sharma et al. 2016).
In brackets after ≈: the same amount, converted by molar mass.

molecular target: EGFR (UniProt P00533)
Sequence (P00533 whole entry, looked up): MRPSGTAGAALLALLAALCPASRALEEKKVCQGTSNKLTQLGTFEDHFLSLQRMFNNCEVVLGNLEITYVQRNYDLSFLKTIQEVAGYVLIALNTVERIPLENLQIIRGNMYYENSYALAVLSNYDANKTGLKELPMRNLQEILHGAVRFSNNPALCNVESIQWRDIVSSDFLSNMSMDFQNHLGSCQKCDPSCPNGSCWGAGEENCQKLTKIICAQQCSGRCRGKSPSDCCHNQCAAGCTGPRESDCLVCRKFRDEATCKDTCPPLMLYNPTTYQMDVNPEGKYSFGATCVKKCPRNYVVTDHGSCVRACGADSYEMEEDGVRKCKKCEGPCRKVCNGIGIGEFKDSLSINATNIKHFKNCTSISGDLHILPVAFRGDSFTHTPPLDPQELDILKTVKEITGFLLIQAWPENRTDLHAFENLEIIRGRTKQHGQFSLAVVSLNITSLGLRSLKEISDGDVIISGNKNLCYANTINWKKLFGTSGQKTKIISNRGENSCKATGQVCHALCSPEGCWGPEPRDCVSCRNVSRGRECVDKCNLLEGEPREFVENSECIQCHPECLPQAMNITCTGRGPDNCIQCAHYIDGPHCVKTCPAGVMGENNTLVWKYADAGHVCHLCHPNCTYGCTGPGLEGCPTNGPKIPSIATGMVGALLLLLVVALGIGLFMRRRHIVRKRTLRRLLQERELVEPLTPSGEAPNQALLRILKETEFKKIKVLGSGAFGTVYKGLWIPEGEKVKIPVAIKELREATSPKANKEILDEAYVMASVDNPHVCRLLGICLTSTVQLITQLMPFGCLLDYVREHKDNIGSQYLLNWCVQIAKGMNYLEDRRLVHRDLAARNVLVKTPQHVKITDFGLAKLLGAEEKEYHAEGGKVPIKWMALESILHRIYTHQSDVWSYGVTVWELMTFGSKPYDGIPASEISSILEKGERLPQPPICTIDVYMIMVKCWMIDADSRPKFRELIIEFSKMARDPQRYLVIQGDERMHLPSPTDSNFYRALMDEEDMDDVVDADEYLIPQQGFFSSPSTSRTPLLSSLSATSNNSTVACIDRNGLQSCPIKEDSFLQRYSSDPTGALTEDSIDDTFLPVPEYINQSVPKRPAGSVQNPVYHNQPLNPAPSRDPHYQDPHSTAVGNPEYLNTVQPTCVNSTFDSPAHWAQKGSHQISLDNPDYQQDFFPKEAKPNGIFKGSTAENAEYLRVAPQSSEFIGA

| IC50 [µg/mL] | Structure (SMILES) |
| --- | --- |
| > 4.5 | COc1cc(Nc2ncnc(Nc3cccc4cccnc34)n2)cc(OC)c1OC |
| 0.4 to 2.4 (≈ 0.793 to 4.76 µM) | O=c1[nH]c2ccccc2n1-c1ncnc(Nc2cccc(NS(=O)(=O)c3ccc([N+](=O)[O-])cc3)c2)n1 |
| < 0.4 | CCN(c1cccc(C)c1)c1ncnc(Nc2cc(OC)c(OC)c(OC)c2)n1 |
| < 0.4 | CN(c1cccc(Cl)c1)c1ncnc(Nc2ccc(S(C)(=O)=O)cc2)n1 |
| > 4.5 | COc1ccc(Nc2ncnc(N(C)c3ccc(C(=O)O)cc3)n2)cc1OC |
| 0.4 to 2.4 (≈ 1.13 to 6.79 µM) | C#Cc1cccc(Nc2ncnc(Nc3cc(-c4ccccc4)n[nH]3)n2)c1 |
| > 4.5 | O=c1[nH]c2ccccc2n1-c1ncnc(Nc2ccc(-c3cnco3)cc2)n1 |
| 0.4 to 2.4 (≈ 1.08 to 6.48 µM) | Nc1nc2ccccc2n1-c1ncnc(Nc2ccc(-c3cnco3)cc2)n1 |
| 2.4 to 3.5 (≈ 6.59 to 9.61 µM) | COc1ccc(Nc2ncnc(-n3c(=O)[nH]c4ccccc43)n2)cc1OC |
| > 4.5 | NC(=O)c1cccc(Nc2ncnc(-n3c(N)nc4ccccc43)n2)c1 |
| > 4.5 | COc1cc(Nc2ncnc(N3CCN(c4ccccn4)CC3)n2)cc(OC)c1OC |
| > 4.5 | COc1cccc(NC(=O)Nc2ncnc(Nc3cc(OC)c(OC)c(OC)c3)n2)c1 |
| > 4.5 | COc1cc(Nc2ncnc(-n3c(NCCO)nc4ccccc43)n2)cc(OC)c1OC |
| 0.4 to 2.4 (≈ 1.21 to 7.24 µM) | CCc1cccc(Nc2ncnc(-n3c(N)nc4ccccc43)n2)c1 |
| > 4.5 | CC(C)(C)OC(=O)NCc1cccc(Nc2ncnc(Nc3cc(C(C)(C)C)n[nH]3)n2)c1 |
| 0.4 to 2.4 (≈ 0.905 to 5.43 µM) | CN(c1cccc(Cl)c1)c1ncnc(Nc2ccc3c(cnn3Cc3ccccc3)c2)n1 |
| 0.4 to 2.4 (≈ 0.898 to 5.39 µM) | COc1cc(Nc2ncnc(Nc3cccc(Oc4ccccc4)c3)n2)cc(OC)c1OC |
| > 4.5 | C=CCNc1ncccc1-c1ncnc(Nc2cc(OC)c(OC)c(OC)c2)n1 |
| > 4.5 | COc1ccc(Nc2ncnc(NCCCN3CCCCC3C)n2)cc1OC (configuration not stated) |
| > 4.5 | CC(C)(C)OC(=O)NCCCNc1ncnc(-c2ccccc2)n1 |
| 0.4 to 2.4 (≈ 1.08 to 6.5 µM) | c1ccc(-c2cc(Nc3ncnc(Nc4ccc5[nH]ncc5c4)n3)[nH]n2)cc1 |

| IC50 [µg/mL] | Structure (SMILES) |
| --- | --- |
| 3.5 to 4.5 (≈ 9.37 to 12 µM) | CCCN(CC1CC1)c1ncnc(Nc2cc(OC)c(OC)c(OC)c2)n1 |
| 2.4 to 3.5 (≈ 5.23 to 7.63 µM) | CC(C)(C)OC(=O)NCc1cccc(Nc2ncnc(Nc3cc(-c4ccccc4)n[nH]3)n2)c1 |
| > 4.5 | COc1cc(Nc2ncnc(-c3ccnc(N4CCCCC4)c3)n2)cc(OC)c1OC |
| 3.5 to 4.5 (≈ 7.24 to 9.31 µM) | COc1cc(Nc2ncnc(-n3c(Nc4ccccc4C)nc4ccccc43)n2)cc(OC)c1OC |
| 0.4 to 2.4 (≈ 0.989 to 5.93 µM) | COc1cc(Nc2ncnc(Nc3cnc4ccccc4c3)n2)cc(OC)c1OC |
| > 4.5 | O=c1[nH]c2ccccc2n1-c1ncnc(Nc2ccccc2[N+](=O)[O-])n1 |
| 0.4 to 2.4 (≈ 1.09 to 6.53 µM) | CC(C)(C)c1cc(Nc2ncnc(Nc3cccc(CC(=O)O)c3)n2)[nH]n1 |
| 0.4 to 2.4 (≈ 1.18 to 7.07 µM) | CC(C)(C)c1cc(Nc2ncnc(Nc3ccc(CO)cc3)n2)[nH]n1 |
| 0.4 to 2.4 (≈ 0.88 to 5.28 µM) | COC(=O)c1ccc(-c2cc(Nc3ncnc(NCCc4c[nH]c5ccccc45)n3)[nH]n2)cc1 |
| > 4.5 | COc1cc(Nc2ncnc(Nc3ccc(S(=O)(=O)NC(C)=O)cc3)n2)cc(OC)c1OC |
| > 4.5 | COc1cc(Nc2ncnc(-n3c(Nc4ccc(N(C)C)cc4)nc4ccccc43)n2)cc(OC)c1OC |
| > 4.5 | COc1cc(Nc2nc3ccccc3n2-c2ncnc(Nc3cc(OC)c(OC)c(OC)c3)n2)cc(OC)c1 |
| > 4.5 | OCc1ccc(Nc2ncnc(-c3ccccc3)n2)cc1 |
| > 4.5 | COc1cc(Nc2ncnc(-c3cccnc3Nc3cccc(Oc4ccccc4)c3)n2)cc(OC)c1OC |
| < 0.4 | Fc1ccc(Nc2ncnc(Nc3ccc4[nH]ccc4c3)n2)cc1Cl |
| > 4.5 | CC(=O)Nc1ccc(Nc2ncnc(-n3c(N)nc4ccccc43)n2)cc1 |
| < 0.4 | COc1cc(Nc2ncnc(Nc3ccc(Oc4ccccc4)cc3)n2)cc(OC)c1OC |
| < 0.4 | COCCOc1ccc(Nc2ncnc(Nc3ccc(C)c(O)c3)n2)cc1OC |
| > 4.5 | NC(=O)c1ccc(Nc2ncnc(-c3ccccc3)n2)cc1 |
| < 0.4 | Cc1cccc(Nc2ncnc(N(C)c3cccc(Cl)c3)n2)c1 |
| 2.4 to 3.5 (≈ 7.84 to 11.4 µM) | O=c1[nH]c2ccccc2n1-c1ncnc(Nc2ccncn2)n1 |
